The subject of this experiment is Pfeiffer cells, lymphoma cells having EZH2 mutation (A677G). In words: Proliferation inhibition of cells of hematologic malignancies (CCK-8, 11 days). The format is cell-based. Particulars: 11 days culture, read-out: Cell proliferation inhibitory effect (IC50). The essentials: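 Pfeiffer lymphoma cells (EZH2 A677G) in RPMI1640 with 10% FBS were seeded at 10,000 cells/well and exposed to test material for 11 days, with compound replaced every 3–4 days. Viability was read by CCK-8 absorbance at 450 nm, and IC50 was derived by non-linear regression curve fitting.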

Data on seven molecules can be found in patent US20250059180A1 (DONG WHA PHARM. CO., LTD., priority 2022, published 2025).

The structures appear in SMILES notation. Where two headings read alike, the source gives them in different places.

Take `CSc1cc(C)[nH]c(=O)c1CNC(=O)c1cc(-c2ccc(N3CCSCC3)nc2)c2c(c1C)OC(C)([C@H]1CC[C@H](N(C)C)CC1)O2` (stereo partly drawn) [Compound 17, 2-(trans-4-(dimethylamino)cyclohexyl)-2,4-dimethyl-N-((6-methyl-4-(methylthio)-2-oxo-1,2-dihydropyridin-3-yl)methyl)-7-(6-thiomorpholinopyridin-3-yl)benzo[d][1,3]dioxole-5-carboxamide]: the IC50 (Homo sapiens, Pfeiffer, 264 h) was at most 0.01 µM.
With `CSc1cc(C)[nH]c(=O)c1CNC(=O)c1cc(-c2ccoc2)c2c(c1C)OC(C)([C@H]1CC[C@H](N(C)C)CC1)O2` (stereo partly drawn) [Compound 18, 2-(trans-4-(dimethylamino)cyclohexyl)-7-(furan-3-yl)-2,4-dimethyl-N-((6-methyl-4-(methylthio)-2-oxo-1,2-dihydropyridin-3-yl)methyl)benzo[d][1,3]dioxole-5-carboxamide], the IC50 (Homo sapiens, Pfeiffer, 264 h) is at most 0.01 µM.
As for `CSc1cc(C)[nH]c(=O)c1CNC(=O)c1cc(-c2ccc(Cl)s2)c2c(c1C)OC(C)([C@H]1CC[C@H](N(C)C)CC1)O2` (stereo partly drawn) [Compound 19, 7-(5-chlorothiophen-2-yl)-2-(trans-4-(dimethylamino)cyclohexyl)-2,4-dimethyl-N-((6-methyl-4-(methylthio)-2-oxo-1,2-dihydropyridin-3-yl)methyl)benzo[d][1,3]dioxole-5-carboxamide], the IC50 (Homo sapiens, Pfeiffer, 264 h) was at most 0.01 µM.
For the molecule `CSc1cc(C)[nH]c(=O)c1CNC(=O)c1cc(-c2cnc(N3CCCCC3)nc2)c2c(c1C)OC(C)([C@H]1CC[C@H](N(C)CC(F)(F)F)CC1)O2` (stereo partly drawn) [Compound 21, 2,4-dimethyl-2-(trans-4-(methyl(2,2,2-trifluoroethyl)amino)cyclohexyl)-N-((6-methyl-4-(methylthio)-2-oxo-1,2-dihydropyridin-3-yl)methyl)-7-(2-(piperidin-1-yl)pyrimidin-5-yl)benzo[d][1,3]dioxole-5-carboxamide], the IC50 (Homo sapiens, Pfeiffer, 264 h) is at most 0.01 µM.
In the case of `CSc1cc(C)[nH]c(=O)c1CNC(=O)c1cc(-c2cnc(N(C)C)nc2)c2c(c1C)OC(C)([C@H]1CC[C@H](N(C)CC(F)(F)F)CC1)O2` (stereo partly drawn) [Compound 22, 7-(2-(dimethylamino)pyrimidin-5-yl)-2,4-dimethyl-2-(trans-4-(methyl(2,2,2-trifluoroethyl)amino)cyclohexyl)-N-((6-methyl-4-(methylthio)-2-oxo-1,2-dihydropyridin-3-yl)methyl)benzo[d][1,3]dioxole-5-carboxamide], where the note is “Homo sapiens, Pfeiffer, 264 h”, the IC50 is at most 0.01 µM.
In the case of `CSc1cc(C)[nH]c(=O)c1CNC(=O)c1cc(-c2cnc(N3C[C@@H](C)O[C@@H](C)C3)nc2)c2c(c1C)OC(C)([C@H]1CC[C@H](N(C)CC(F)(F)F)CC1)O2` (stereo partly drawn) [Compound 23, 7-(2-((2S,6R)-2,6-dimethylmorpholino)pyrimidin-5-yl)-2,4-dimethyl-2-(trans-4-(methyl(2,2,2-trifluoroethyl)amino)cyclohexyl)-N-((6-methyl-4-(methylthio)-2-oxo-1,2-dihydropyridin-3-yl)methyl)benzo[d][1,3]dioxole-5-carboxamide], the IC50 is at most 0.01 µM.
With `COCCN(C)[C@H]1CC[C@H](C2(C)Oc3c(-c4ccc(N5C[C@@H](C)O[C@@H](C)C5)nc4)cc(C(=O)NCc4c(SC)cc(C)[nH]c4=O)c(C)c3O2)CC1` (stereo partly drawn) [Compound 24, 7-(6-((2S,6R)-2,6-dimethylmorpholino)pyridin-3-yl)-2-(trans-4-((2-methoxyethyl)(methyl)amino)cyclohexyl)-2,4-dimethyl-N-((6-methyl-4-(methylthio)-2-oxo-1,2-dihydropyridin-3-yl)methyl)benzo[d][1,3]dioxole-5-carboxamide], for the setting “Homo sapiens, Pfeiffer, 264 h”, the IC50 was at most 0.01 µM.
